Experimental data taken from US9458153B2, “Dihydroquinolizinones for the treatment and prophylaxis of hepatitis B virus infection” (Hoffmann-La Roche Inc., priority 2014, dated 2016).
Where a name gives a salt, the structure may show the parent alone.

Tested on: HBsAg
Experiment: HBsAg assay (chemiluminescence immunoassay of secreted HBsAg in HepG2.2.15 culture supernatant)
Assay type: cell-based, HBV
Settings: HepG2.2.15 cells, CLIA kit
Procedure, shortened: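 IC50 came from dose-response curves of HBsAg in culture supernatant, measured semi-quantitatively by chemiluminescent immunoassay. The HBV-producing HepG2.2.15 line was dosed in duplicate with a three-fold compound dilution series, with DMSO at 1% final and DMSO alone as the no-drug control.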

[1] = HBsAg secretion reduced by 50% vs no drug control
[2] = HBsAg secretion reduced by 50% vs no drug control, hydrochloride
[3] = Hepatitis B virus, HepG2.2.15, HBsAg secretion reduced by 50% vs no drug control

SMILES | IC50 [1] [nM] | other results
COCCCOc1cc2c(cc1OC)-c1cc(=O)c(C(=O)O)cn1C(C(C)(C)C)C2 (single isomer, unassigned; (-)) [Example 133, (−)-6-tert-butyl-10-methoxy-9-(3-methoxypropoxy)-2-oxo-6,7-dihydrobenzo[a]quinolizine-3-carboxylic acid] | 330 | 
COCCOc1cc2c(cc1OC)-c1cc(=O)c(C(=O)O)cn1C(C1(C)CC1)C2 (single isomer, unassigned; (-)) [Example 136, (−)-10-methoxy-9-(2-methoxyethoxy)-6-(1-methylcyclopropyl)-2-oxo-6,7-dihydrobenzo[a]quinolizine-3-carboxylic acid] | 400 | 
COCCCOc1cc2c(c(Cl)c1F)-c1cc(=O)c(C(=O)O)cn1C(C(C)C)C2 (single isomer, unassigned; (-)) [Example 139, (−)-11-chloro-10-fluoro-6-isopropyl-9-(3-methoxypropoxy)-2-oxo-6,7-dihydrobenzo[a]quinolizine-3-carboxylic acid] | 129 | 
COc1cc2c(cc1OCC(F)F)CC(C(C)C)n1cc(C(=O)O)c(=O)cc1-2 (single isomer, unassigned; (-)) [Example 143, (−)-9-(2,2-difluoroethoxy)-6-isopropyl-10-methoxy-2-oxo-6,7-dihydrobenzo[a]quinolizine-3-carboxylic acid] | 190 | 
COc1cc2c(cc1OCC(C)(C)CO)CC(C(C)C)n1cc(C(=O)O)c(=O)cc1-2 (single isomer, unassigned; (-)) [Example 146, (−)-9-(3-hydroxy-2,2-dimethyl-propoxy)-6-isopropyl-10-methoxy-2-oxo-6,7-dihydrobenzo[a]quinolizine-3-carboxylic acid] | 520 | 
COc1cc2c(cc1OCC(C)(C)CO)CC(C(C)(C)C)n1cc(C(=O)O)c(=O)cc1-2 (single isomer, unassigned; (-)) [Example 151, (−)-6-tert-butyl-9-(3-hydroxy-2,2-dimethyl-propoxy)-10-methoxy-2-oxo-6,7-dihydrobenzo[a]quinolizine-3-carboxylic acid] | 160 | 
COc1cc2c(cc1OCCCCCO)CC(C(C)(C)C)n1cc(C(=O)O)c(=O)cc1-2 (single isomer, unassigned; (-)) [Example 154, (−)-6-tert-butyl-9-(5-hydroxypentoxy)-10-methoxy-2-oxo-6,7-dihydrobenzo[a]quinolizine-3-carboxylic acid] | 120 | 
COc1cc2c(cc1OCCCCCCO)CC(C(C)(C)C)n1cc(C(=O)O)c(=O)cc1-2 (single isomer, unassigned; (-)) [Example 157, (−)-6-tert-butyl-9-(6-hydroxyhexoxy)-10-methoxy-2-oxo-6,7-dihydrobenzo[a]quinolizine-3-carboxylic acid] | 170 | 
COc1cc2c(cc1OCCCCCCNC(=O)OC(C)(C)C)CC(C(C)(C)C)n1cc(C(=O)O)c(=O)cc1-2 (single isomer, unassigned; (-)) [Example 163, (−)-9-[6-(tert-butoxycarbonylamino)hexoxy]-6-tert-butyl-10-methoxy-2-oxo-6,7-dihydrobenzo[a]quinolizine-3-carboxylic acid] | 350 | 
COc1cc2c(cc1OCCCCCCN)CC(C(C)(C)C)n1cc(C(=O)O)c(=O)cc1-2 (single isomer, unassigned; (-)) [Example 165, (−)-9-(6-aminohexoxy)-6-tert-butyl-10-methoxy-2-oxo-6,7-dihydrobenzo[a]quinolizine-3-carboxylic acid hydrochloride] |  | IC50 [2]: 1550 nM
COc1cc2c(cc1OCCCCCCCCNC(=O)OC(C)(C)C)CC(C(C)(C)C)n1cc(C(=O)O)c(=O)cc1-2 (single isomer, unassigned; (-)) [Example 169, (−)-9-[8-(tert-butoxycarbonylamino)octoxy]-6-tert-butyl-10-methoxy-2-oxo-6,7-dihydrobenzo[a]quinolizine-3-carboxylic acid] | 190 | 
COc1cc2c(cc1OCCCCCCCCN)CC(C(C)(C)C)n1cc(C(=O)O)c(=O)cc1-2 (single isomer, unassigned; (-)) [Example 171, (−)-9-(8-aminooctoxy)-6-tert-butyl-10-methoxy-2-oxo-6,7-dihydrobenzo[a]quinolizine-3-carboxylic acid hydrochloride] |  | IC50 [2]: 420 nM
COc1cc2c(cc1OCCCCCN)CC(C(C)(C)C)n1cc(C(=O)O)c(=O)cc1-2 (single isomer, unassigned; (-)) [Example 174, (−)-9-(5-aminopentoxy)-6-tert-butyl-10-methoxy-2-oxo-6,7-dihydrobenzo[a]quinolizine-3-carboxylic acid hydrochloride] |  | IC50 [2]: 2420 nM
COc1cc2c(cc1OCCCSC)CC(C(C)(C)C)n1cc(C(=O)O)c(=O)cc1-2 (single isomer, unassigned; (-)) [Example 185, (−)-6-tert-butyl-10-methoxy-9-(3-methylsulfanylpropoxy)-2-oxo-6,7-dihydrobenzo[a]quinolizine-3-carboxylic acid] | 55 | 
COc1cc2c(cc1OCCCS(C)(=O)=O)CC(C(C)(C)C)n1cc(C(=O)O)c(=O)cc1-2 (single isomer, unassigned; (-)) [Example 188, (−)-6-tert-butyl-10-methoxy-9-(3-methylsulfonylpropoxy)-2-oxo-6,7-dihydrobenzo[a]quinolizine-3-carboxylic acid] | 220 | 
COc1cc2c(cc1OCCN1CCOCC1)CC(C(C)(C)C)n1cc(C(=O)O)c(=O)cc1-2 (single isomer, unassigned; (-)) [Example 191, (−)-6-tert-butyl-10-methoxy-9-(2-morpholinoethoxy)-2-oxo-6,7-dihydrobenzo[a]quinolizine-3-carboxylic acid] | 190 | 
COc1cc2c(cc1OCCCN1CCOCC1)CC(C(C)(C)C)n1cc(C(=O)O)c(=O)cc1-2 (single isomer, unassigned; (-)) [Example 194, (−)-6-tert-butyl-10-methoxy-9-(3-morpholinopropoxy)-2-oxo-6,7-dihydrobenzo[a]quinolizine-3-carboxylic acid] | 270 | 
COCCCOc1cc2c(cc1OC)-c1cc(=O)c(C(=O)O)cn1C(CC(F)(F)F)C2 (single isomer, unassigned; (-)) [Example 201, (−)-10-methoxy-9-(3-methoxypropoxy)-2-oxo-6-(2,2,2-trifluoroethyl)-6,7-dihydrobenzo[a]quinolizine-3-carboxylic acid] | 14200 | 
COCCCOc1cc2c(cc1Cl)-c1cc(=O)c(C(=O)O)cn1C(C(C)(C)C)C2 (single isomer, unassigned; (-)) [Example 204, (−)-6-tert-butyl-10-chloro-9-(3-methoxypropoxy)-2-oxo-6,7-dihydrobenzo[a]quinolizine-3-carboxylic acid] | 140 | 
COCCCOc1cc2c(cc1Cl)-c1cc(=O)c(C(=O)O)cn1C(C1(C)CC1)C2 (single isomer, unassigned; (-)) [Example 207, (−)-10-chloro-9-(3-methoxypropoxy)-6-(1-methylcyclopropyl)-2-oxo-6,7-dihydrobenzo[a]quinolizine-3-carboxylic acid] | 40 | 
COCCCOc1cc2c(cc1OC)-c1cc(=O)c(C(=O)O)cn1C(C1(C)CC1)C2 (single isomer, unassigned; (-)) [Example 210, (−)-10-methoxy-9-(3-methoxypropoxy)-6-(1-methylcyclopropyl)-2-oxo-6,7-dihydrobenzo[a]quinolizine-3-carboxylic acid] | 92 | 
COCCCOc1cc2c(c(F)c1F)-c1cc(=O)c(C(=O)O)cn1C(C(C)C)C2 (single isomer, unassigned; (-)) [Example 215, (−)-10,11-difluoro-6-isopropyl-9-(3-methoxypropoxy)-2-oxo-6,7-dihydrobenzo[a]quinolizine-3-carboxylic acid] | 1140 | 
COc1cc2c(cc1OCc1ccccc1)CC(C)n1cc(C(=O)O)c(=O)cc1-2 (stereo not drawn) [Example 1, 9-benzyloxy-10-methoxy-6-methyl-2-oxo-6,7-dihydrobenzo[a]quinolizine-3-carboxylic acid] |  | IC50 [3]: 13 nM
CCOc1cc2c(cc1OC)-c1cc(=O)c(C(=O)O)cn1C(C)C2 (stereo not drawn) [Example 4, 9-ethoxy-10-methoxy-6-methyl-2-oxo-6,7-dihydrobenzo[a]quinolizine-3-carboxylic acid] |  | IC50 [3]: 98 nM
CCC1Cc2cc(OCc3ccccc3)c(OC)cc2-c2cc(=O)c(C(=O)O)cn21 (stereo not drawn) [Example 8, 9-benzyloxy-6-ethyl-10-methoxy-2-oxo-6,7-dihydrobenzo[a]quinolizine-3-carboxylic acid] | 150 | 
CCC1Cc2cc(OCCc3ccccc3)c(OC)cc2-c2cc(=O)c(C(=O)O)cn21 (stereo not drawn) [Example 14, 6-ethyl-10-methoxy-2-oxo-9-(2-phenylethoxy)-6,7-dihydrobenzo[a]quinolizine-3-carboxylic acid] |  | IC50 [3]: 14 nM
CCCCOc1cc2c(cc1OC)-c1cc(=O)c(C(=O)O)cn1C(CC)C2 (stereo not drawn) [Example 15, 9-butoxy-6-ethyl-10-methoxy-2-oxo-6,7-dihydrobenzo[a]quinolizine-3-carboxylic acid] |  | IC50 [3]: 16 nM
CCC1Cc2cc(OCCC3CCCCC3)c(OC)cc2-c2cc(=O)c(C(=O)O)cn21 (stereo not drawn) [Example 16, 9-(2-cyclohexylethoxy)-6-ethyl-10-methoxy-2-oxo-6,7-dihydrobenzo[a]quinolizine-3-carboxylic acid] |  | IC50 [3]: 15 nM
C#CCOc1cc2c(cc1OC)-c1cc(=O)c(C(=O)O)cn1C(CC)C2 (stereo not drawn) [Example 17, 6-ethyl-10-methoxy-2-oxo-9-prop-2-ynoxy-6,7-dihydrobenzo[a]quinolizine-3-carboxylic acid] |  | IC50 [3]: 190 nM
CCC1Cc2cc(OCC(=O)N3CCCC3)c(OC)cc2-c2cc(=O)c(C(=O)O)cn21 (stereo not drawn) [Example 18, 6-ethyl-10-methoxy-2-oxo-9-(2-oxo-2-pyrrolidin-1-yl-ethoxy)-6,7-dihydrobenzo[a]quinolizine-3-carboxylic acid] |  | IC50 [3]: 9470 nM
